“Also recorded” adds a separate entry of the source. Like-named read-outs stand apart in the source and are kept apart here.
Legend:
[1] = target: T1, cytochrome c oxidase (CcO) purified from bovine heart (Bos taurus, UniProt P00396+P68530); experiment: Cytochrome oxidase activity assay (oxygen uptake, Clark-type electrode; ascorbate + TMPD + cytochrome c); format: biochemical; conditions: for Inhibition of CcO Oxidase Activity, DM Influence: effect of dodecyl-maltoside on the inhibition; for Kd: X-axis intercept; for slope tangent of Ki(app) vs [DM], ratio Ki:Kc: ratio of the affinities of hormone and DM
T1 construct: Cytochrome oxidase was isolated from bovine heart mitochondria; from tissue; host or cells: bovine heart mitochondria
Description: Cytochrome oxidase was isolated from bovine heart mitochondria using the modified method of Fowler et al. as described previously by Vygodina et al..
Cytochrome oxidase activity assay. Oxygen uptake rates were measured with a covered Clark-type electrode by an Oxytherm instrument (Hansatech, UK) in a thermostatted cell at 25 °C with permanent stirring. The assays were performed in a basic medium containing 50 mM Hepes, 50 mM Tris, pH 7.5 and 0.1 mM EDTA. The medium was also supplemented with indicated concentrations of DM which are given throughout the text in mM (0.05% ≈ 1.0 mM DM). 5 mM ascorbate, 0.1 mM TMPD and 10 µM cytochrome c were used as the oxidation substrate. Other details are indicated in the legends to figures.
In order to determine Ki(app), the titration curves in Figure 2B were approximated by Equation (2) that connects normalized activity, v, with testosterone concentration, [I].

[2] = target: T1, cytochrome c oxidase (CcO) purified from bovine heart; experiment: Peroxidase activity of CcO (o-dianisidine peroxidation by H2O2); format: biochemical; conditions: for Inhibition of CcO Peroxidase Activity: 0.2 mM o-dianisidine, 4 mM H2O2, 0.6 µM CcO
Description: Peroxidase activity of CcO was assayed as described by Vygodina and Konstantinov by following spectrophotometrically peroxidation of 0.2 mM o-dianisidine at 432 nm minus 580 nm in a dual-wavelength SLM Aminco DW-2000 spectrophotometer (USA). The reaction mixture contained 0.6 µM CcO in the aerobic basic medium supplemented with different concentrations of DM. No o-dianisidine oxidase activity was observed and the peroxidase reaction was initiated by addition of 4 mM H2O2.

[3] = target: T2, cytochrome c oxidase (CcO) purified from bovine heart, heme a3 (Bos taurus, UniProt P00396+P68530); experiment: Absorption spectra of CcO (hormone-induced difference spectra); format: binding; conditions: for Spectral Response Induced in Oxidized CcO: air-oxidized CcO; for Magnitude ε of the spectral shift induced in oxidized CcO: estradiol: 1 mM hormone, pH 8.0, 437 minus 415 nm
T2 construct: Cytochrome oxidase was isolated from bovine heart mitochondria; from tissue; host or cells: bovine heart mitochondria
Description: Absorption spectra of CcO were recorded with a Cary 300 Bio spectrophotometer (Varian, Palo Alto, CA, USA) in semi-micro cuvettes with blackened walls and 10 mm light pathway (Hellma, Müllheim, Germany), in the basic medium at pH 8.0 supplemented with indicated different additions. The kinetics of spectral changes was monitored in a dual-wavelength mode in a SLM Aminco DW-2000 spectrophotometer.

[4] = target: T1, cytochrome c oxidase (CcO) purified from bovine heart; design: method as in the paper is submitted for publication; conditions: from study on inhibition of CcO by Triton X-100; ref the paper is submitted for publication; read-out: affinity between DM and CcO, Kc; cited from earlier work
[5] = test system: human endothelial cells; design: method as in PMID 17267145; conditions: read-out: IC50% for inhibition of cell growth; cited from earlier work
[6] = test system: CcO from R. sphaeroides; design: method as in PMID 24073649; conditions: cited from earlier work
[7] = target: T3, cytochrome c oxidase (CcO) purified from bovine heart, electron transfer from heme a to heme a3 (Bos taurus, UniProt P00396+P68530); experiment: Stopped-flow kinetics of CcO (heme a3) reduction by dithionite in the presence of RuAm; format: biochemical; conditions: for rate constant of heme a3 reduction, rapid phase: control 105.3; for rate constant of heme a3 reduction, slow phase: control 6.15
T3 construct: Cytochrome oxidase was isolated from bovine heart mitochondria; from tissue; host or cells: bovine heart mitochondria
Description: The kinetics of CcO reduction by dithionite in the presence of ruthenium hexammine (RuAm) was studied in an Applied Photophysics SX-20 stopped-flow spectrophotometer (UK) operated in a diode array mode, using a 20 µL cell with 1 cm optical pathway. The spectra in the 280–720 nm range were collected with a minimal interval of 1 ms. The assay medium contained 100 mM Hepes, 100 mM Tris, 50 mM KCl, 100 µM EGTA, catalase (2 µL/5 mL of the solution, indicated activity 23,000 units/mg protein), 0.05% DM, pH 8.0. Aerobic buffer with 6 µM CcO and 0.4 mM or 1 mM estradiol was rapidly mixed with the equal volume of the same buffer containing 40 mM sodium dithionite and 10 mM RuAm.
Procession of the stopped-flow data was performed with ProKineticist software provided with the Applied Photophysics SX-20 instrument, as well as by using Origin 7 and Origin 9 Microcal software.
We investigated effect of estradiol on the kinetics of electron transfer from heme a to heme a3. To this end, the kinetics of the hemes’ reduction by dithionite in the presence of RuAm was studied. In the experiment shown in Figure 4, 3 µM CcO was mixed rapidly with 20 mM dithionite and 5 mM RuAm and the reaction time course was followed by taking the spectra each ms in the 280–720 nm range in a rapid mixing diode array spectrophotometer.

[8] = target: R. sphaeroides CcO (Cereibacter sphaeroides, UniProt P33517+Q03736); experiment: Preliminary experiments on inhibition of R. sphaeroides CcO; format: biochemical, Rhodobacter sphaeroides
Sequence of R. sphaeroides CcO (P33517 whole entry): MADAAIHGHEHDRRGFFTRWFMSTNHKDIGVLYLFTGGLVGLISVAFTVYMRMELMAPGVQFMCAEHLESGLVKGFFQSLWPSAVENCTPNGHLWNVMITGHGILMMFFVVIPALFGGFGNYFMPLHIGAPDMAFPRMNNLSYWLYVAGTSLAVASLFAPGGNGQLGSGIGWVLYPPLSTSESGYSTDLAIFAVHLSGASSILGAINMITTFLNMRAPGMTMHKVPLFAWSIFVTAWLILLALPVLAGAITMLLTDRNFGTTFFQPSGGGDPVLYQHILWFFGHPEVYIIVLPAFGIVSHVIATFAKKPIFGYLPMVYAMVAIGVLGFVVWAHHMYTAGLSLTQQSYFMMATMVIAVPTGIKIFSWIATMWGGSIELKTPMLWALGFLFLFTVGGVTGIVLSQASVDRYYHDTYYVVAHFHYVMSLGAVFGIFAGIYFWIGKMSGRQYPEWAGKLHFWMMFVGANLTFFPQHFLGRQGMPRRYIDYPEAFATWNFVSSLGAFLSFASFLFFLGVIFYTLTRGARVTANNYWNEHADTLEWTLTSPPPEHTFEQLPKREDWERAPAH
Sequence of R. sphaeroides CcO (Q03736 26-290 limits assumed): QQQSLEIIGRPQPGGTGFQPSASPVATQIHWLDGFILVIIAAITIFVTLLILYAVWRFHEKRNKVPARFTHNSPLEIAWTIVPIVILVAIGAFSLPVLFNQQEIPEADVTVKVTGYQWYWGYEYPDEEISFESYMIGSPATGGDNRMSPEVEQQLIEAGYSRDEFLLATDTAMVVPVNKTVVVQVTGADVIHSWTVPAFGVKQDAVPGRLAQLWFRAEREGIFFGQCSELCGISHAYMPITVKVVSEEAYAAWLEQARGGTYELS

[9] = true Ki extrapolated to zero dodecyl-maltoside (DM) from plot of Ki(app) vs [DM], 25 °C, pH 7.5, read-out: Inhibition of CcO Oxidase Activity, Ki (DM→0)

## C=C1CC[C@H](O)C/C1=C/C=C1\CCC[C@]2(C)[C@@H]([C@H](C)CCCC(C)C)CC[C@@H]12 [Cholecalciferol (vitamine D3), Cholecalciferol]
[1]
  Inhibition of CcO Oxidase Activity, DM Influence: competes 1:1
[1]; [9]
  Ki: 9 µM
[2]
  Inhibition of CcO Peroxidase Activity: yes
[2]; read-out: Ki for inhibition of CcO peroxidase activity
  Ki: ~200 µM
[3]
  Spectral Response Induced in Oxidized CcO: red shift of a3^3+
[3]; 13 mM DM
  Magnitude ε of the spectral shift induced in oxidized CcO: 25 mM^−1⋅cm^−1

## CCCCCCCCCCCCO[C@@H]1O[C@H](CO)[C@@H](O[C@H]2O[C@H](CO)[C@@H](O)[C@H](O)[C@H]2O)[C@H](O)[C@H]1O [DM, dodecyl-maltoside]
[1]; from plot of Ki(app) for estradiol vs [DM], read-out: dissociation constant for DM in the absence of estradiol, Kc
  Kd: 1470 µM
[1]; from plot of Ki(app) for testosterone vs [DM], read-out: dissociation constant for DM in the absence of testosterone, Kc
  Kd: 1300 µM
[4]
  Kd: 1200 µM

## C[C@]12CC[C@H](O)CC1=CC[C@@H]1[C@@H]2CC[C@]2(C)C(=O)CC[C@@H]12 [Dehydroepiandrosterone (DHEA), Dehydroepiandrosterone]
[1]
  Ki: 110 µM
  Inhibition of CcO Oxidase Activity, DM Influence: competes 1:1
[2]
  Inhibition of CcO Peroxidase Activity: no

## CC(=O)[C@H]1CC[C@H]2[C@@H]3CCC4=CC(=O)CC[C@]4(C)[C@H]3CC[C@]12C [Progesterone]
[1]
  Inhibition of CcO Oxidase Activity, DM Influence: competes 1:1
[1]; [9]
  Ki: 120 µM
[2]
  Inhibition of CcO Peroxidase Activity: no

## C[C@]12CC[C@H]3[C@@H](CCC4=CC(=O)CC[C@@]43C)[C@@H]1CC[C@@H]2O [Testosterone]
[1]
  Ki: 80 µM
  Inhibition of CcO Oxidase Activity, DM Influence: competes 1:1; increases maximal level of inhibition
  slope tangent of Ki(app) vs [DM], ratio Ki:Kc: 0.05
[1]; 1 mM DM
  maximal level of inhibition by excess testosterone: ca. 25%
[1]; 4 mM testosterone, 1 mM DM
  inhibition of CcO oxidase activity: inhibits the activity but weakly
[1]; 4 mM testosterone, 20 mM DM
  inhibition of CcO oxidase activity: strong inhibition; also recorded: does inhibit
[1]; high concentrations of both testosterone and DM (Figure 2A, trace 1: 4 mM testosterone, 20 mM DM)
  inhibition of CcO oxidase activity directly observed (fold): ≤ 3 fold
[1]; read-out: inhibition of bovine oxidase
  inhibition at 100 µM: 13%
[5]
  IC50: 100 µM
[6]
  effect on the activity of CcO from R. sphaeroides: did not reveal inhibition
[2]
  Inhibition of CcO Peroxidase Activity: no
[2]; listed as testosterone
  Inhibition of CcO Peroxidase Activity: do not inhibit
[3]
  Spectral Response Induced in Oxidized CcO: no

## C[C@]12CCC(=O)C=C1CC[C@@H]1[C@@H]2CC[C@]2(C)C(=O)CC[C@@H]12 [androstenedione]
[5]
  IC50: 375 µM

## CC(C)CCC[C@@H](C)[C@H]1CC[C@H]2[C@@H]3CC=C4C[C@@H](O)CC[C@]4(C)[C@H]3CC[C@]12C [cholesterol]
[1]; unpublished data of the authors
  inhibition of the oxidase activity of the bovine heart enzyme: does not inhibit

## C[C@]12CC[C@@H]3c4ccc(OC(=O)c5ccccc5)cc4CC[C@H]3[C@@H]1CC[C@@H]2O [estradiol-3-benzoate]
[1]; 0.5 mM estradiol, 1 mM DM
  inhibition of oxygen consumption (oxidase activity): approximately by half; also recorded: does inhibit
[1]; 2 mM estradiol, 1 mM DM
  inhibition of CcO oxidase activity (fold): ~4 fold
[1]; 2 mM estradiol, 20 mM DM
  inhibition of CcO oxidase activity: only a slight inhibition
[1]
  Inhibition of CcO Oxidase Activity, DM Influence: competes 1:1
  slope tangent of Ki(app) vs [DM], ratio Ki:Kc: 0.25
[1]; [9]
  Ki: 370 µM
[6]
  effect on the activity of CcO from R. sphaeroides: did not reveal inhibition
[2]
  Inhibition of CcO Peroxidase Activity: no
[2]; listed as estradiol
  Inhibition of CcO Peroxidase Activity: do not inhibit
[3]; 1 mM estradiol, 13 mM DM, oxidized CcO
  time for the spectral shift to reach completion after hormone addition: 3 to 5 min
[3]; 1 mM estradiol, cyanide effect from ref 20
  magnitude of spectral shift relative to the effect induced by cyanide: ca. 1/5
[3]
  Spectral Response Induced in Oxidized CcO: red shift of a3^3+
[3]; 13 mM DM
  Magnitude ε of the spectral shift induced in oxidized CcO: 10 mM^−1⋅cm^−1
[3]; reduced CcO
  effect on the absorption spectrum of the reduced CcO: No effect
[7]; 0.2 mM estradiol, 3 µM CcO, 20 mM dithionite, 5 mM RuAm
  rate constant of heme a3 reduction, rapid phase: 67.75 s⁻¹
[7]; 0.2 mM estradiol
  rate constant of heme a3 reduction, slow phase: 5.3 s⁻¹
[7]; 0.5 mM estradiol
  decrease of the rate constants of both phases of heme a3 reduction: ca. 60%
  rate constant of heme a3 reduction, slow phase: 2.5 s⁻¹
  rate constant of heme a3 reduction, rapid phase: 39.6 s⁻¹
[8]
  inhibition of R. sphaeroides CcO: inhibition

## C[C@]12CC[C@H]3[C@@H](CCC4=CC(=O)CC[C@@H]43)[C@@H]1CC[C@@H]2O [nandrolone]
[5]
  IC50: 9 µM

## C[C@]12CC[C@H]3[C@@H](CCC4=CC(O)CC[C@@H]43)[C@@H]1CCC2O (stereo partly shown) [norandrostenediol]
[5]
  IC50: 6000 µM

## C[C@]12CC[C@H]3[C@@H](CCC4=CC(=O)CC[C@@H]43)[C@@H]1CCC2=O [norandrostenedione]
[5]
  IC50: 500 µM

## CC1=C(/C=C/C(C)=C/C=C/C(C)=C/C(=O)O)C(C)(C)CCC1 [retinoic acid]
[6]
  effect on the activity of CcO from R. sphaeroides: strongly inhibited

## N[C@@H](Cc1cc(I)c(Oc2ccc(O)c(I)c2)c(I)c1)C(=O)O [thyroid hormone T3]
[6]
  effect on the activity of CcO from R. sphaeroides: inhibited the enzyme; also recorded: strongly inhibited

Reference: publication PMC7601700, “Interaction of Cytochrome C Oxidase with Steroid Hormones” (Cells, 2020)
